According to patent US7531320B2, “Modulation of β-catenin/TCF-activated transcription” (priority 2003, dated 2009):
One block for each compound: values may come before it.

What was measured:
SW480 cells = assay: Soft agar colony formation assay with SW480 cells; type: cell-based, human; details: Homo sapiens, 192 h, 5000 cells/well, colonies counted after 8 days
HL60 = details: human
Protocol: (§1) Cytotoxicity of COMPOUND 3 (an analog of COMPOUND 1, FIG. 1A) and other anticancer therapeutics were measured using cancer cells with various origins.

A549 = details: human
Protocol: as §1

PC3 = details: human
Protocol: as §1

MCF7 = details: human
Protocol: as §1

293 = details: human
Protocol: as §1

RPM17951 = details: human
Protocol: as §1

CBP (1-111) = target: T1, CBP (1-111) (Mus musculus, UniProt P45481); assay: Pull-down of CBP deletion constructs on COMPOUND 2 coated beads, competition with excess COMPOUND 1; type: binding; details: E. coli expressed 6x-His protein, 100 μM COMPOUND 2
T1 construct: 6xHis (C); HSV tag (C); expressed in transfected cells
T1 sequence (P45481 1-110): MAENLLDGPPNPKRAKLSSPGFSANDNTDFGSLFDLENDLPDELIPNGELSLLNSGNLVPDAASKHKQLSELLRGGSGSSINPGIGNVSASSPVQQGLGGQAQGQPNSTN

p300 (1-111) = target: T2, p300 (1-111) (Homo sapiens, UniProt Q09472); assay: Pull-down of p300 deletion constructs on COMPOUND 2 coated beads, competition with excess COMPOUND 1; type: binding; details: E. coli expressed 6x-His protein, 100 μM COMPOUND 2
T2 construct: 6xHis (C); HSV tag (C); expressed in transfected cells
T2 sequence (Q09472 1-117): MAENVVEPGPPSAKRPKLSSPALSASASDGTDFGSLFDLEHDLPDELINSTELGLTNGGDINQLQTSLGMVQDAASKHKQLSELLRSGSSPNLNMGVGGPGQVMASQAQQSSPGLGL
Protocol: FIG. 2. The first 111 amino acids of CBP, but not p300, specifically bind COMPOUND 1. • A. Schematic representation of the wild-type and deletion constructs for CBP. • B. CBP (1-111) contains the minimal binding domain of COMPOUND 1. Expression levels of CBP deletion constructs in SW480 cells are shown (upper panel). 10 μg of total protein was subjected to gel electrophoresis and subjected to immunoblotting using anti-His antibodies. Whole cell lysates of SW480 cells expressing CBP deletion constructs were bound to streptavidin-agarose beads coated with 100 μM of COMPOUND 2. The bound fractions were subjected to gel electrophoresis and immunoblotting using anti-His antibodies (lower panel). Arrows point to constructs which remained bound to COMPOUND 2 coated beads. • C. […] CBP deletion constructs, CBP(1-111),CBP (1-211), and CBP (1-351) and p300 deletion constructs, p300 (1-111), p300 (1-211), and p300 (1-351) were transfected into SW480 cells. Whole cell lysates were incubated with streptavidin-agarose beads or streptavidin-agarose beads coated with 100 μM COMPOUND 2 (lower panel). The binding of CBP constructs (1-111,1-211, and 1-351) and p300 constructs (1-111,1-211, and 1-351) to the beads was challenged with excess COMPOUND 1 (150 μM). • D. CBP (1-111) binds to COMPOUND 1 in a phosphorylation independent manner. […]

CBP = target: T3, CBP (Homo sapiens, UniProt Q92793); assay: COMPOUND 2 streptavidin-agarose affinity pull-down from SW480 nuclear extracts; type: binding; details: SW480 nuclear extract, immunoblotting with anti-CBP
T3 construct: endogenous in cells; host or cells: SW480 nuclear extract
T3 sequence (Q92793 whole entry): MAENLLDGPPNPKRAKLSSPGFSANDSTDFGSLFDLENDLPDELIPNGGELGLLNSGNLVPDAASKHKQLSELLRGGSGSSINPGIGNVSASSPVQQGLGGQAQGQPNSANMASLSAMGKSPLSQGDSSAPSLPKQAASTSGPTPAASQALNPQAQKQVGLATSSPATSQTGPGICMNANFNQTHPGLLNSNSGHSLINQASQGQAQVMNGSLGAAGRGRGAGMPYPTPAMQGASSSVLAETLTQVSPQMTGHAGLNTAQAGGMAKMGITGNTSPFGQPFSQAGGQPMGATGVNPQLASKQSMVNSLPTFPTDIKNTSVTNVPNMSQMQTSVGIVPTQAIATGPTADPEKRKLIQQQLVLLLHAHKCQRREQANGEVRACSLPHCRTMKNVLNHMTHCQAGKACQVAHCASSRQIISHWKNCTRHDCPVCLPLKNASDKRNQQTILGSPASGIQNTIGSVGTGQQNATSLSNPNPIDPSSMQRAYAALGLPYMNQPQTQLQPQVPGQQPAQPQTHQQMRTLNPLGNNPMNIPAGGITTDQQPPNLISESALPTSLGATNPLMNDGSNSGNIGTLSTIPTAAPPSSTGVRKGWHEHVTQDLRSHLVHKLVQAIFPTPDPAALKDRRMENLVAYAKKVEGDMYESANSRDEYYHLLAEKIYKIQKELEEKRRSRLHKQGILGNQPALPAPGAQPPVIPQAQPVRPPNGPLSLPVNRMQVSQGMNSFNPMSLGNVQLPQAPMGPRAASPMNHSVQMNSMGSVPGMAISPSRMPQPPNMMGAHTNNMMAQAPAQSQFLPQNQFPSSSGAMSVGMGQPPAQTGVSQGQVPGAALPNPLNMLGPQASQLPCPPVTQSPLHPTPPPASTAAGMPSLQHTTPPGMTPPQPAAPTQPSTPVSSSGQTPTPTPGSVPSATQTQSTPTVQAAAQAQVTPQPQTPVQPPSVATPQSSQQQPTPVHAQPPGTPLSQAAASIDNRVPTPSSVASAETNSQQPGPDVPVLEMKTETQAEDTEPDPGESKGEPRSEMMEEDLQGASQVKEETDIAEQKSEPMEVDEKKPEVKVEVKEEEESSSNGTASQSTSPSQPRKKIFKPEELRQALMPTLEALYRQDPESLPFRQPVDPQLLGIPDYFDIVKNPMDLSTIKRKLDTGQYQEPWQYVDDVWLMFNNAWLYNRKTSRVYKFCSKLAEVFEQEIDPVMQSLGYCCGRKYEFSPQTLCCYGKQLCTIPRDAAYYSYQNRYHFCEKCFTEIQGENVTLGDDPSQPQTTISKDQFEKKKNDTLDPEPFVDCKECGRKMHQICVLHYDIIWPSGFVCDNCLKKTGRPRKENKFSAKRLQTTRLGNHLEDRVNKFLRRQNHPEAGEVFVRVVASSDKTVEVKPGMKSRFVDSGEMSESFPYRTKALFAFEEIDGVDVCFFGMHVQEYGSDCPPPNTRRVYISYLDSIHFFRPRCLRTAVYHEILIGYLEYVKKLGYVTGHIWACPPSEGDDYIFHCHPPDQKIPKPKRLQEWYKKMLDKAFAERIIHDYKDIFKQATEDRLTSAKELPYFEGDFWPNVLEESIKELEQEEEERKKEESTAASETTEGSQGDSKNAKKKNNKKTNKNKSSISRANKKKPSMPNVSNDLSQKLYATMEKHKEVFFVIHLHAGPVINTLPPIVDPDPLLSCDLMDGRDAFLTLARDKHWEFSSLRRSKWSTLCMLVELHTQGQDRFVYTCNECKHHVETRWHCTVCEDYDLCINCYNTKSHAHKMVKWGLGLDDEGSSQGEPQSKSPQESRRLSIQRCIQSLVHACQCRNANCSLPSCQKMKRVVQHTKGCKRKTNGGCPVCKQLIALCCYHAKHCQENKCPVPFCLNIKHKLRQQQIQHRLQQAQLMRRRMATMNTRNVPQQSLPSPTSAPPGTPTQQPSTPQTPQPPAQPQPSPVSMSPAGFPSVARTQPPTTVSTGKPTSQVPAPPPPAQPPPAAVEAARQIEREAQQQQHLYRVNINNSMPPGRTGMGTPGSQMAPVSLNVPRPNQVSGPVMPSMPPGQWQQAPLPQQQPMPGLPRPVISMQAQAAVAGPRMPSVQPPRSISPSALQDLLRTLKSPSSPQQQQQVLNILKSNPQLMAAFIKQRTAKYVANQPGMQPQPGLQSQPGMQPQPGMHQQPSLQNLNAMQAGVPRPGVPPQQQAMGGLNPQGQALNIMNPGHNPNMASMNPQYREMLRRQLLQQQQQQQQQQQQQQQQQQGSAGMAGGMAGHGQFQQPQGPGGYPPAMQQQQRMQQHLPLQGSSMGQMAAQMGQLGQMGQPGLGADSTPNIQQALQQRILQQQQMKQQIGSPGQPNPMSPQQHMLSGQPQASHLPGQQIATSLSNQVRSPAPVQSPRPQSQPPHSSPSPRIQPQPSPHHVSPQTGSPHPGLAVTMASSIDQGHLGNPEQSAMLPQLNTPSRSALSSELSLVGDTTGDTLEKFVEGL
Protocol: FIG. 1. COMPOUND 1 inhibits β-catenin/TCF transcription. • A(i) and A(ii). Structures of COMPOUND 1, COMPOUND 2, COMPOUND 3, COMPOUND 4, and COMPOUND 5. • B(i) and B(ii). […] SW480 cells (10^5), (FIG. 1B(i)), were transfected with β-catenin/TCF luciferase construct. Cells were treated with COMPOUND 1 (1-64 μM). 24 hours post treatment lysates were prepared and subjected to dual luciferase assay. The data is represented in different form in FIG. 1B(ii). • C. COMPOUND 1 has no effect on NFAT reporter construct. Stably transfected Jurkat cells, right panel, with an NFAT reporter construct, were stimulated with PMA (10 ng/ml)/lonomycin (1 μg/ml), and treated with COMPOUND 1 (0.781-50 μM). 24 hours post treatment lysates were prepared and subjected to dual luciferase assay. All experiments were performed in duplicate and the values plotted as means +/−standard deviation. • D. CBP is the molecular target of COMPOUND 1. Nuclear extracts of SW480 cells were incubated with streptavidin-agarose beads coated with COMPOUND 2 (25 μM). Beads were washed 3 times and the eluted were subjected to gel electrophoresis and immunoblotting, with anti-CBP antibodies. […] The lysates were desalted using G-25 1 cc columns (Pharmacia) to remove the unbound ^14C-labeled-COMPOUND 1, and ^14C-labeled-COMPOUND 1 incorporation was measured. […]

Min mouse = assay: Polyp number in Min mouse model; type: in vivo; details: for Polyp Number (Mean + S.D.), Colon / Polyp Number (Mean + S.D.), Small intestine / Polyp Number (Mean + S.D.), Total / % Inhibition vs. VH: Min mouse; for % Inhibition vs. VH: total polyp number vs. vehicle
Protocol: COMPOUND 4, COMPOUND 5, or vehicle was administrated in wild type and Min mice. COMPOUND 4 is also an analog of COMPOUND 1 (FIG. 1A). The numbers of polyp formed in small intestine and colon of these mice after various treatments were measured (Table 6).

[1] = system: nuclear β-catenin in SW480 cells; assay: β-catenin immunofluorescence and western blot localization in SW480 cells; type: cell-based, human; details: data not shown
Protocol: FIG. 4. COMPOUND 1 decreases nuclear β-catenin • A. β-catenin immunofluorescence microscopy. Log phase SW480 (left) and HCT116 (right) cells were fixed and stained with either anti-β-catenin red (upper panel, A) or anti-CBP (upper panel, B) green. The center panel represents the superimposed β-catenin and CBP in SW480 (left) and HCT116 (right) cells. […] 25 μg of total protein from the cell extracts of SW480 cells with or without 24 hr treatment of COMPOUND1 was used for detection of cytosolic and nuclear β-catenin.
Immunofluorescence was used to examine the localization of CBP and β-catenin in SW480 and HCT116 cells treated with COMPOUND 1 (25 μM) or control (0.5% DMSO). Cells at log phase were seeded and after 24 hours, the cells were treated with COMPOUND 1 or control. 24 hours post treatment, cells were fixed. The coverslips were incubated with antibodies raised against CBP (A-22) (Santa Cruz Biotechnology) and β-catenin (Transduction Laboratories), respectively. The slides were examined using a Nikon PCM 2000 Laser Scanning Confocal Microscope after the secondary antibodies conjugated to either FITC or TRITC (Jackson ImmunoResearch, Westgrove, Pa.) were applied.
The subcellular distribution of β-catenin and CBP was examined in order to determine whether the localization of either was affected by COMPOUND 1. […]

IC50 (SW480 cells): 1.98 ± 0.17 µM
Structure (SMILES): O=c1[nH]cc(F)c(=O)[nH]1 [5-FU, 5-fluorouracil]
Cytotoxicity (HL60): 7.010 µg/mL | Cytotoxicity (A549): 1.007 µg/mL | Cytotoxicity (PC3): >10 µg/mL | Cytotoxicity (MCF7): 1.751 µg/mL | Cytotoxicity 293: 2.015 µg/mL | Cytotoxicity (RPM17951): 0.920 µg/mL

Structure (SMILES): COc1cccc2c1C(=O)c1c(O)c3c(c(O)c1C2=O)C[C@@](O)(C(=O)CO)C[C@@H]3O[C@H]1C[C@H](N)[C@H](O)[C@H](C)O1 [ADR, adriamycin]
Cytotoxicity (HL60): 0.086 µg/mL | Cytotoxicity (A549): 0.117 µg/mL | Cytotoxicity (PC3): 0.267 µg/mL | Cytotoxicity (MCF7): 1.424 µg/mL | Cytotoxicity 293: <0.03 µg/mL | Cytotoxicity (RPM17951): 0.171 µg/mL

Binding of purified CBP (1-111) to COMPOUND 2 beads (CBP (1-111)): specific binding | Binding of purified p300 (1-111) to COMPOUND 2 beads (p300 (1-111)): not p300 (1-111)
Structure (SMILES): O=C(CCCCCNC(=O)CCCCC1SCC2NC(=O)NC21)NCCCCCC(=O)NCc1cccc(CNC(=O)N2CCC(=O)N3C(Cc4ccc(O)cc4)C(=O)N(Cc4cccc5ccccc45)CC23)c1 (centres unmarked) [COMPOUND 2]
Major band retained on COMPOUND 2 affinity column (CBP): identified by immunoblotting as the CREB Binding Protein (CBP)

Structure (SMILES): CN1CC(=O)N2C(Cc3ccc(O)cc3)C(=O)N(Cc3cccc4cccnc34)CC2N1C(=O)NCc1ccccc1 (centres unmarked) [COMPOUND 4]
Effect on number of polyp compared to vehicle control (Min mouse; Min mice, about 300 mpk): reduce the number of polyp | Polyp Number (Mean + S.D.), Colon (Min mouse; 300 mpk): 1.4 ± 0.9 | Polyp Number (Mean + S.D.), Small intestine (Min mouse; 300 mpk): 45.2 ± 22.1 | Polyp Number (Mean + S.D.), Total (Min mouse; 300 mpk): 46.8 ± 17.0 | % Inhibition vs. VH (Min mouse; 300 mpk): 31%

Structure (SMILES): CC1=C(CC(=O)O)c2cc(F)ccc2/C1=C\c1ccc([S+](C)[O-])cc1 (centres unmarked) [Sulindac, reference compound]
Polyp Number (Mean + S.D.), Colon (Min mouse; 160 ppm): 0.5 ± 0.5 | Polyp Number (Mean + S.D.), Small intestine (Min mouse; 160 ppm): 48.0 ± 20.7 | Polyp Number (Mean + S.D.), Total (Min mouse; 160 ppm): 48.5 ± 20.9 | % Inhibition vs. VH (Min mouse; 160 ppm): 28%

Structure (SMILES): CCC(=C/[C@H](C)C/C=C/C(C)=C/[C@@H](C)C(=O)[C@@H](C)[C@H](O)[C@@H](C)C/C(C)=C/C(=O)O)/C=C/[C@@H]1OC(=O)C=C[C@@H]1C [leptomycin B, reference compound]
Effect of nuclear transport inhibitor on COMPOUND 1-induced β-catenin transport [1]: eliminated COMPOUND 1-induced cytoplasmic transport of β-catenin
